Some test systems named below: OVCAR-5; HT-29; SF-539; CAKI-1; SK-MEL-5; OVCAR-4; U-251; 786-0; SF-268; NCI-H522; HOP-92; SR; HCC 2998; SNB-75; OVCAR-8; SF-295; HCT-116; Hs-578T; MDA-MB-231.
Common to all, as to assay: NCI tumour cell line growth inhibition, 48 h

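Assay format: 96-well plates, 48-hour exposure. The concentration for 50% growth inhibition is given as GI50.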 Activity calls are given as the source filed them. No stated cut-off is given here; in the data, active = GI50 up to about 1.1 µM and inactive = higher. A value given as a limit tells only on which side of the number the result lay.

With `FC(F)(F)c1nc2ccc3[nH]c4c(-c5ccccc5)nccc4c3c2[nH]1`, the GI50 in the assay with OVCAR-5, in the assay on HT-29, in the assay on SF-539, with CAKI-1, in the assay with SK-MEL-5 and with OVCAR-4 was > 100 µM (inactive) throughout. The GI50 in the assay with U-251 was > 100 µM (inactive); with 786-0 it was > 100 µM (inactive); with SF-268, > 100 µM (inactive); in the assay with NCI-H522 it was > 83.8 µM (inactive); in the assay on HOP-92, > 100 µM (inactive); in the assay on SR, 17.9 µM (inactive). The GI50 in the assay on HCC 2998 is > 100 µM (inactive); in the assay on SNB-75, > 100 µM (inactive); in the assay with OVCAR-8, > 100 µM (inactive); with SF-295 it was > 100 µM (inactive); in the assay with HCT-116, > 74.5 µM (inactive).

Take `CC1CCC2(OCCO2)[C@]2(C)CC(O)C(=O)C=C12` (stereo partly specified): the GI50 in the assay on OVCAR-5, in the assay on HT-29, in the assay on SF-539, in the assay with SK-MEL-5, in the assay on U-251 and with 786-0 was > 100 µM (inactive) throughout. Moreover, the GI50 in the assay on SF-268, with NCI-H522, in the assay with HOP-92, with SR, in the assay with HCC 2998 and in the assay with OVCAR-8 was > 100 µM (inactive) each time. In the assay on SF-295, the GI50 is > 100 µM (inactive).

With `CC1(C)OCN(c2ccc(N3CCOCC3)cc2)Cn2c1nc1ccccc12`, the GI50 with HT-29 was > 100 µM (inactive); in the assay on SF-539 it was 88.1 µM (inactive); in the assay on OVCAR-4, 29.6 µM (inactive); in the assay with U-251 it was > 100 µM (inactive); in the assay on 786-0, > 100 µM (inactive); in the assay with SF-268, > 100 µM (inactive). In addition, the GI50 was > 100 µM (inactive) with NCI-H522; > 100 µM (inactive) in the assay with HOP-92; 31.2 µM (inactive) in the assay with SR; > 100 µM (inactive) in the assay with HCC 2998; > 100 µM (inactive) in the assay with SNB-75; > 100 µM (inactive) with OVCAR-8. Moreover, the GI50 in the assay on SF-295 was > 100 µM (inactive); in the assay on HCT-116, 65.9 µM (inactive).

With `CC1(Cl)C(=O)NC(=O)N([C@H]2C[C@H](O)[C@@H](CO)O2)C1N=[N+]=[N-]` (stereo partly specified), the GI50 with OVCAR-5 is > 100 µM (inactive); in the assay with HT-29 it was > 100 µM (inactive); in the assay with SF-539 it was > 100 µM (inactive); in the assay on CAKI-1 it was > 100 µM (inactive); with SK-MEL-5 it was > 100 µM (inactive); with OVCAR-4, > 96.2 µM (inactive). Moreover, the GI50 with U-251, in the assay with 786-0, with SF-268, in the assay with NCI-H522, in the assay on HOP-92 and in the assay with SR was > 100 µM (inactive) throughout. The GI50 with HCC 2998, in the assay on SNB-75, with OVCAR-8, in the assay with SF-295 and in the assay on HCT-116 was > 100 µM (inactive) each time.

For the compound `Cc1ccc(NC(=O)C(=O)C2NC(=S)NC2=O)c([N+](=O)[O-])c1` (stereo unspecified), the GI50 in the assay with OVCAR-5, in the assay on HT-29, with SF-539, in the assay on CAKI-1, in the assay on SK-MEL-5 and in the assay with OVCAR-4 was > 100 µM (inactive) throughout. The GI50 in the assay with U-251 was > 100 µM (inactive); with 786-0 it was > 100 µM (inactive); with SF-268 it was > 100 µM (inactive); with NCI-H522, > 100 µM (inactive); with HOP-92, 45.5 µM (inactive); with SR, > 100 µM (inactive). In addition, the GI50 with HCC 2998, in the assay with SNB-75, with OVCAR-8, with SF-295 and in the assay on HCT-116 was > 100 µM (inactive) in each case.

As for `CC(=O)c1cc2c3c(c1)c1cc4c(cc1c(=O)n3CC2)OCO4`, the GI50 was 78.7 µM (inactive) in the assay with OVCAR-5; 19.4 µM (inactive) with HT-29; 32.6 µM (inactive) in the assay with SF-539; 20.8 µM (inactive) with CAKI-1; 31 µM (inactive) in the assay with SK-MEL-5; 25.8 µM (inactive) in the assay with OVCAR-4. In addition, the GI50 in the assay on U-251 was 27 µM (inactive); in the assay on 786-0 it was 13.4 µM (inactive); in the assay with NCI-H522 it was 7.21 µM (inactive); in the assay with HOP-92, 54.8 µM (inactive); in the assay on SR, 4.32 µM (inactive); in the assay with HCC 2998, > 100 µM (inactive). The GI50 was 34.4 µM (inactive) in the assay on SNB-75, 8.3 µM (inactive) in the assay on OVCAR-8, 26.9 µM (inactive) in the assay with SF-295 and 4.71 µM (inactive) in the assay with HCT-116.

As for `CCN(CC)CCC(=O)Nc1ccc2c(c1)C(=O)c1ccc(NC(=O)CCN(CC)CC)cc1C2=O`, the GI50 with OVCAR-5 was 11.2 µM (inactive); in the assay with HT-29, 2.59 µM (inactive); in the assay on SF-539 it was 3.51 µM (inactive); with CAKI-1, 4.43 µM (inactive); in the assay on SK-MEL-5, 7.08 µM (inactive); in the assay with OVCAR-4 it was 4.63 µM (inactive). Further, the GI50 in the assay with U-251 was 9.18 µM (inactive); with 786-0, 2.15 µM (inactive); in the assay with SF-268, 5.62 µM (inactive); in the assay with NCI-H522 it was 11.2 µM (inactive); in the assay with HOP-92, 12.8 µM (inactive); with SR it was 3.37 µM (inactive). Also, the GI50 in the assay on HCC 2998 is > 100 µM (inactive); in the assay with SNB-75, 14.2 µM (inactive); with OVCAR-8 it was 4.16 µM (inactive); in the assay with SF-295, 11.3 µM (inactive); in the assay on HCT-116 it was 2.19 µM (inactive).

Take `O=[N+]([O-])c1nccn1COCCI`: the GI50 in the assay on OVCAR-5, in the assay with HT-29, with SF-539, in the assay with CAKI-1, in the assay on SK-MEL-5 and in the assay with OVCAR-4 was > 100 µM (inactive) throughout. Besides, the GI50 in the assay on U-251, in the assay on 786-0, with SF-268, in the assay on NCI-H522, with HOP-92 and in the assay on SR was > 100 µM (inactive) in each case. In addition, the GI50 with SNB-75, in the assay on OVCAR-8, in the assay on SF-295 and in the assay on HCT-116 was > 100 µM (inactive) throughout.

Consider `C=C1C(=O)C23C(O)C1CC[C@H]2C12CCCC(C)(COC(C)=O)[C@H]1[C@H](O)[C@]3(O)OC2` (stereo partly specified), for which the GI50 in the assay on OVCAR-5 was 2.36 µM (inactive); with HT-29, 1.8 µM (inactive); in the assay with SF-539 it was 1.68 µM (inactive); with CAKI-1, 1.16 µM (inactive); in the assay on SK-MEL-5, 1.72 µM (inactive); with OVCAR-4, 2.15 µM (inactive). For the same compound, the GI50 in the assay on U-251 is 2.21 µM (inactive); in the assay with 786-0 it was 0.966 µM (active); in the assay with SF-268, 3.19 µM (inactive); in the assay on NCI-H522, 0.285 µM (active); in the assay on HOP-92 it was 1.39 µM (inactive); in the assay on HCC 2998 it was 1.85 µM (inactive). Besides, the GI50 in the assay with SNB-75 is 1.53 µM (inactive); in the assay with OVCAR-8, 1.7 µM (inactive); in the assay with SF-295, 0.891 µM (active); in the assay with Hs-578T, 2.77 µM (inactive); in the assay with HCT-116, 1.06 µM (active).

For the compound `O=C(O/N=C1/CCCC/C1=C\c1ccccc1)c1ccc(Cl)cc1`, the GI50 with OVCAR-5 is 44.8 µM (inactive); in the assay with HT-29, > 100 µM (inactive); in the assay on SF-539, > 100 µM (inactive); in the assay on CAKI-1, 84.5 µM (inactive); with SK-MEL-5 it was 89.7 µM (inactive); in the assay on OVCAR-4 it was 53 µM (inactive). Besides, the GI50 with U-251 is 89.3 µM (inactive); in the assay with 786-0, > 100 µM (inactive); in the assay on SF-268, > 100 µM (inactive); in the assay with NCI-H522 it was 23.3 µM (inactive); in the assay on HOP-92, 40.9 µM (inactive); in the assay on SR it was 56.6 µM (inactive). Moreover, the GI50 in the assay with HCC 2998 is 0.0177 µM (active); in the assay with SNB-75 it was 88.7 µM (inactive); in the assay with OVCAR-8, > 100 µM (inactive); in the assay with SF-295, 47.4 µM (inactive); in the assay with HCT-116, > 100 µM (inactive).

With `NCCCCN(CCCN)C(=O)c1ccccc1`, the GI50 in the assay with OVCAR-5, in the assay with HT-29, with SF-539, in the assay on MDA-MB-231, with CAKI-1 and in the assay on SK-MEL-5 was > 100 µM (inactive) throughout. Also, the GI50 in the assay with OVCAR-4, in the assay with U-251, in the assay on 786-0, in the assay with SF-268, in the assay with NCI-H522 and with HOP-92 was > 100 µM (inactive) throughout. The GI50 in the assay with HCC 2998, in the assay on SNB-75, in the assay with OVCAR-8, in the assay with SF-295, in the assay on Hs-578T and in the assay with HCT-116 was > 100 µM (inactive) each time.

As for `NS(=O)(=O)c1ccc(NC(=O)c2cccc3c(=O)c4ccccc4[nH]c23)cc1`, the GI50 with OVCAR-5 is > 100 µM (inactive); with HT-29, > 100 µM (inactive); in the assay on SF-539, 22.7 µM (inactive); in the assay with CAKI-1, > 100 µM (inactive); in the assay on SK-MEL-5, 65.5 µM (inactive); in the assay on OVCAR-4 it was 29.6 µM (inactive). Moreover, the GI50 in the assay with U-251 is 48.4 µM (inactive); with 786-0, > 100 µM (inactive); in the assay on SF-268, 30.6 µM (inactive); with NCI-H522, 3.8 µM (inactive); in the assay with HOP-92 it was > 100 µM (inactive); in the assay on SR it was 22 µM (inactive). Besides, the GI50 was > 100 µM (inactive) in the assay on HCC 2998; 15.3 µM (inactive) in the assay on SNB-75; > 100 µM (inactive) in the assay on OVCAR-8; > 100 µM (inactive) with SF-295; 32.4 µM (inactive) with HCT-116.

(Values after ChEMBL document CHEMBL1201862, “PubChem BioAssay data set” (2004).)
